Blank lines part the entries; values can stand above or below the molecule they belong to.
Tests used:
[1] = system: human malignant melanoma cell line IGR39; assay: MTT cell viability assay, IGR39; assay type: cell-based
Method: (§1) The effect of synthesized compounds on cell viability was studied using 3-(4,5-dimethylthiazol-2-yl)-2,5-diphenyltetrazolium bromide (MTT; Sigma-Aldrich Co., St Louis, MO, USA) assay, as described elsewhere. Briefly, IGR39, MDA-MB-231, Panc-1, and HF cells were seeded in 96-well plates (Corning) in triplicate at a volume of 100 μL (IGR39, MDA-MB-231 and Panc-1: 4 × 10^3 cells/well; HF: 5 × 10^3 cells/well). After 24 h, cells were treated with 50 μM of tested compounds. After 72 h, the MTT reagent was added and cells were incubated for 4 h. Then the medium was aspirated, and the formed formazan crystals were dissolved in 100 μL DMSO (Sigma-Aldrich Co., St. Louis, MO, USA). The absorbance was measured at 570 and 630 nm using a multi-detection microplate reader. The compound effect on cell viability was calculated using the formula:(1) Relative cell viability (%)=A−A0/ANC−A0 where
(§2) • A—mean of absorbance of the tested compound, • A0—mean of absorbance of blank (no cells, positive control), and • ANC—mean of absorbance of negative control (only cells, no treatment).
(§3) The compound serial dilutions from 50 µM to 1.56 µM were made in a medium and added to the cells in triplicates. The EC50 value representing the concentration of a compound causing 50% reduction of cancer cell metabolic activity was calculated using the Hill equation.

[2] = system: human pancreatic carcinoma cell line Panc-1; assay: MTT cell viability assay, Panc-1; assay type: cell-based; conditions: 72 h, serial dilutions 50-1.56 µM, n = 3, read-out: EC50 against Panc-1
Method: as §1, §2, §3

[3] = system: Human foreskin fibroblasts (HF) CRL-4001; assay: MTT cell viability assay, fibroblasts; assay type: cell-based; conditions: 72 h
Method: as §1, §2, §3

[4] = system: MDA-MB-231 cell migration; assay: 'Wound healing' cell migration assay, MDA-MB-231; assay type: cell-based, human; conditions: 10 µM, both after 24 h and 48 h of incubation
Method: (§4) Briefly, melanoma IGR39, human triple-negative breast cancer MDA-MB-231, and pancreatic carcinoma Panc-1 cells were seeded in 24-well plates at a density of 6 × 10^4 cells/well and incubated for 48 h in previously described cell culture medium at 37°C in a humidified atmosphere containing 5% CO2. Then the scratch was made using a 100 µL pipette tip. Cells were washed once with PBS, and the fresh medium containing 10 µM of compounds 4, 7, 8, 10, 14, 17, and 18 was added. Medium containing 0.1% DMSO was used as a negative control. Cells were incubated at 37 °C in a humidified atmosphere containing 5% CO2.
(§5) The ‘Wounds’ were captured at the intervals of 0 h, 24 h, 48 h and 72 h (only for the Panc-1 cell line) from scratch under the phase contrast microscope at a 4× magnification. The wound area was analysed using the ImageJ program (National Institute of Health, Bethesda, MD, USA).

[5] = system: human triple-negative breast cancer MDA-MB-231; assay: MTT cell viability assay, MDA-MB-231; assay type: cell-based
Method: as §1, §2, §3

[6] = system: IGR39, MDA-MB-231 and Panc-1 cell migration; assay: 'Wound healing' cell migration assay, stated for all tested cell lines; assay type: cell-based, human; conditions: 10 µM, compared to the control
Method: as §4, §5

[7] = system: IGR39, MDA-MB-231 and Panc-1 cell lines; assay: MTT cell viability assay, result stated for all tested cancer cell lines together; assay type: cell-based, human; conditions: 72 h
Method: as §1, §2, §3

[8] = system: IGR39, MDA-MB-231 and Panc-1 tumour spheroids; assay: 3D cell cultures (spheroids), stated for all three spheroid types; assay type: cell-based, human; conditions: 10 µM, 8 days of incubation
Method: (§6) Cancer cell spheroids were formed using the magnetic 3D Bioprinting method, as described elsewhere. Briefly, melanoma IGR39, triple-negative breast cancer MDA-MB-231 cells, pancreatic cancer Panc-1 cells, and human fibroblasts at 70% confluency in a 6-well plate were incubated with Nanoshuttle (n3D Biosciences, Inc., Houston, TX, USA) for 8 h at 37°C in a humidified atmosphere containing 5% CO2. Then cells were trypsinized, centrifuged, and seeded into an ultra-low attachment 96-well plate in a volume of 100 µL (1.5 × 10^3 cancer cells and 1.5 × 10^3 human fibroblasts/well). The plate was placed on a magnetic drive and incubated for 2 days at 37°C in a humidified atmosphere containing 5% CO2. Then the fresh medium containing 10 µM of the tested compound was added to the wells. Spheroids were captured every two days using the Olympus IX73 inverted microscope (OLYMPUS CORPORATION, Tokyo, Japan). Quantitative analysis of compound anticancer activity in spheroids was performed using ImageJ, version 1.53o (National Institutes of Health, USA) and Microsoft Office Excel 2016 software (Microsoft Corporation, Redmond, WA, USA).
(§7) On the last day of incubation, 10 µL of WST-1 reagent (Sigma-Aldrich Co, St. Louis, MO, USA) was added to each well with spheroids. After 10 h of incubation, 50 µL of liquid from each well were transferred to the new 96-well plate and the absorbance was measured at 460 and 530 nm using a multi-detection microplate reader. Spheroid cell viability was calculated using a formula provided in Section 3.2.2.

melanoma IGR39 spheroids = assay: 3D cell cultures (spheroids), IGR39; assay type: cell-based, human; conditions: 10 µM, 8 days of incubation
Method: as §6, §7

SMILES: CCOC(=O)CSC1NN=C(CCNc2ccccc2)N1c1ccccc1 (centres unmarked) [Compound 2, Ethyl 2-((4-phenyl-3-(2-(phenylamino)ethyl)-4,5-dihydro-1H-1,2,4-triazol-5-yl)thio)acetate]
melting point: 121 to 122 °C

SMILES: Cc1ccc(C=NNC(=O)CSc2nnc(CCNc3ccccc3)n2-c2ccccc2)cc1 [Compound 9, N′-(4-methylbenzylidene)-2-((4-phenyl-5-(2-(phenylamino)ethyl)-4H-1,2,4-triazol-3-yl)thio)acetohydrazide]
melting point: 189 to 190 °C

SMILES: CN(C)c1ccc(C=NNC(=O)CSc2nnc(CCNc3ccccc3)n2-c2ccccc2)cc1 [Compound 10, N′-(4-(dimethylamino)benzylidene)-2-((4-phenyl-5-(2-(phenylamino)ethyl)-4H-1,2,4-triazol-3-yl)thio)acetohydrazide]
EC50 [2]: 26.2 ± 1 µM
selectivity against the melanoma IGR39 cell line (screening) ([1]; 50 µM, 72 h): moderate selectivity
EC50 ([1]; Homo sapiens, IGR-39, 72 h, serial dilutions 50-1.56 µM, n = 3, read-out: EC50 against IGR39): 22.3 ± 2.5 µM
EC50 ([3]; Homo sapiens, Fibroblast, serial dilutions 50-1.56 µM, n = 3, read-out: EC50 against fibroblasts): 61.4 ± 2.8 µM
melting point: 169 to 170 °C
MDA-MB-231 cell migration [4]: migrated slower
EC50 ([5]; Homo sapiens, MDA-MB-231, 72 h, serial dilutions 50-1.56 µM, n = 3, read-out: EC50 against MDA-MB-231): 9.7 ± 1.6 µM
effect on cell migration [6]: inhibited all cancer cell migration

SMILES: O=C(CSc1nnc(CCNc2ccccc2)n1-c1ccccc1)NN=Cc1ccncc1 [Compound 11, 2-((4-Phenyl-5-(2-(phenylamino)ethyl)-4H-1,2,4-triazol-3-yl)thio)-N′-(pyridin-4-ylmethylene)acetohydrazide]
melting point: 209 to 210 °C

SMILES: O=C(CSc1nnc(CCNc2ccccc2)n1-c1ccccc1)NN=Cc1cccnc1 [Compound 12, 2-((4-Phenyl-5-(2-(phenylamino)ethyl)-4H-1,2,4-triazol-3-yl)thio)-N′-(pyridin-3-ylmethylene)acetohydrazide]
melting point: 92 to 93 °C

SMILES: O=C(CSc1nnc(CCNc2ccccc2)n1-c1ccccc1)NN=Cc1ccc(C(=O)O)cc1 [Compound 13, 4-((2-(2-((4-Phenyl-5-(2-(phenylamino)ethyl)-4H-1,2,4-triazol-3-yl)thio)acetyl)hydrazono)methyl)benzoic acid]
melting point: 233 to 234 °C

SMILES: O=C(CSc1nnc(CCNc2ccccc2)n1-c1ccccc1)NN=Cc1c[nH]nc1-c1ccccc1 [Compound 15, N′-((3-phenyl-1H-pyrazol-4-yl)methylene)-2-((4-phenyl-5-(2-(phenylamino)ethyl)-4H-1,2,4-triazol-3-yl)thio)acetohydrazide]
melting point: 119 to 120 °C

SMILES: Cn1ccc(C=NNC(=O)CSc2nnc(CCNc3ccccc3)n2-c2ccccc2)n1 [Compound 16, N′-((1-methyl-1H-pyrazol-3-yl)methylene)-2-((4-phenyl-5-(2-(phenylamino)ethyl)-4H-1,2,4-triazol-3-yl)thio)acetohydrazide]
melting point: 62 to 63 °C

SMILES: CSc1ccc(C=NNC(=O)CSc2nnc(CCNc3ccccc3)n2-c2ccccc2)cc1 [Compound 19, N′-(4-(methylthio)benzylidene)-2-((4-phenyl-5-(2-(phenylamino)ethyl)-4H-1,2,4-triazol-3-yl)thio)acetohydrazide]
activity against the IGR39 cell line (screening) ([1]; 50 µM, 72 h): least active
melting point: 196 to 197 °C
activity towards the triple-negative breast cancer cell line (screening) ([5]; 50 µM, 72 h): relatively higher activity

More lines, main results first:

melting point: 112 to 113 °C
SMILES: NNC(=O)CSc1nnc(CCNc2ccccc2)n1-c1ccccc1 [Compound 3, 2-((4-Phenyl-5-(2-(phenylamino)ethyl)-4H-1,2,4-triazol-3-yl)thio)acetohydrazide]

melting point: 238 to 239 °C
SMILES: COc1ccc2c(c1)C(=NNC(=O)CSc1nnc(CCNc3ccccc3)n1-c1ccccc1)C(=O)N2 [Compound 5, N′-(5-methoxy-2-oxoindolin-3-ylidene)-2-((4-phenyl-5-(2-(phenylamino)ethyl)-4H-1,2,4-triazol-3-yl)thio)acetohydrazide]

melting point: 274 to 275 °C
SMILES: O=C(CSc1nnc(CCNc2ccccc2)n1-c1ccccc1)NN=C1C(=O)Nc2ccc([N+](=O)[O-])cc21 [Compound 6, N′-(5-nitro-2-oxoindolin-3-ylidene)-2-((4-phenyl-5-(2-(phenylamino)ethyl)-4H-1,2,4-triazol-3-yl)thio)acetohydrazide]

melting point: 266 to 267 °C
SMILES: O=C(CSc1nnc(CCNc2ccccc2)n1-c1ccccc1)NN=C1C(=O)Nc2ccc(F)cc21 [Compound 7, N′-(5-fluoro-2-oxoindolin-3-ylidene)-2-((4-phenyl-5-(2-(phenylamino)ethyl)-4H-1,2,4-triazol-3-yl)thio)acetohydrazide]
activity against the IGR39 cell line (screening) ([1]; 50 µM, 72 h): most active

EC50 [2]: 38.5 ± 1.6 µM
melting point: 258 to 259 °C
SMILES: O=C(CSc1nnc(CCNc2ccccc2)n1-c1ccccc1)NN=C1C(=O)Nc2ccc(OC(F)(F)F)cc21 [Compound 8, N′-(2-oxo-5-(trifluoromethoxy)indolin-3-ylidene)-2-((4-phenyl-5-(2-(phenylamino)ethyl)-4H-1,2,4-triazol-3-yl)thio)acetohydrazide]
activity against the IGR39 cell line (screening) ([1]; 50 µM, 72 h): most active
cytotoxicity against fibroblasts ([3]; compared with the other selected compounds): lower cytotoxicity against fibroblasts

EC50 ([7]; Homo sapiens, range over cancer cell lines, read-out: EC50 values against the tested cancer cell lines (range)): 2 to 17 µM
melting point: 219 to 220 °C
SMILES: O=C(CSc1nnc(CCNc2ccccc2)n1-c1ccccc1)NN=Cc1cc([N+](=O)[O-])ccc1O [Compound 18, N′-(2-hydroxy-5-nitrobenzylidene)-2-((4-phenyl-5-(2-(phenylamino)ethyl)-4H-1,2,4-triazol-3-yl)thio)acetohydrazide]
activity against all tested cancer cell lines (screening) ([7]; 50 µM): most active
activity in 3D cell cultures (spheroids) [8]: most active
melanoma IGR39 spheroid growth (melanoma IGR39 spheroids): mostly inhibited
